“Also recorded” adds a separate entry of the source.
Target: T1, hPRB (Homo sapiens, UniProt P06401)
T1 sequence (P06401 1-933): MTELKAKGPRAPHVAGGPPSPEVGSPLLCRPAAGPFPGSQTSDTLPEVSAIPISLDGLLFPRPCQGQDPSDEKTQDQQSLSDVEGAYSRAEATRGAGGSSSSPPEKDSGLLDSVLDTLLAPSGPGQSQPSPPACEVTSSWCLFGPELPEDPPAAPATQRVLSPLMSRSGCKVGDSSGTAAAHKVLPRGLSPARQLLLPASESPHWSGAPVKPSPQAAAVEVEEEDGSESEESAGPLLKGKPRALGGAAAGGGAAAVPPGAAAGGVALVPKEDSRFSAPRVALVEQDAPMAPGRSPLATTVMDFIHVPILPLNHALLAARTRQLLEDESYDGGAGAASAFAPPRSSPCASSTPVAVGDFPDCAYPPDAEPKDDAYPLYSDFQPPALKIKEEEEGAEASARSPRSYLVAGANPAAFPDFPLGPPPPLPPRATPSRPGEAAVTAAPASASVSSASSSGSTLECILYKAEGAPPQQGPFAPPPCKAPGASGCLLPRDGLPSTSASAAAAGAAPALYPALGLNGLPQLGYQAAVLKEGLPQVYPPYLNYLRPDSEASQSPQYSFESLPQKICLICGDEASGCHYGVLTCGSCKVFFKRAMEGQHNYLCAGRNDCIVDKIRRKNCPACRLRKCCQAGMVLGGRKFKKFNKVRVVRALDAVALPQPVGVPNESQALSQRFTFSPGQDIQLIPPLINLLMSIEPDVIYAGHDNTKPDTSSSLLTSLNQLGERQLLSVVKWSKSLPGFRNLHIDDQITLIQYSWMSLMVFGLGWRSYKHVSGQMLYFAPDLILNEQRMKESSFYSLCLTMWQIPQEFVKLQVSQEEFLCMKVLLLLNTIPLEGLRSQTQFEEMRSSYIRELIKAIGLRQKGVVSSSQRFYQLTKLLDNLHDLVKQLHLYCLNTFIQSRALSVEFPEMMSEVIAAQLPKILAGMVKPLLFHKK
Test: PR transactivation assay (GRE2-Luc) in HEK293T cells transiently expressing hPRB
Type: cell-based
Parameters: expressed in transfected cells; host or cells: HEK 293T
Conditions: APRn 1 μM
Summary of the method: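 HEK293T cells transiently transfected by calcium phosphate with human PRB, GRE2-Luc reporter and β-gal control, grown in dextran-charcoal-treated FCS. Luciferase measured in lysates; agonist efficacy at 1 μM compound as ratio of luciferase activities ×100, antagonist efficacy as 100 minus that ratio; mean±SEM of 3-5 experiments.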

[1] = series 2-4, stated for both HEK293T and MDA-MB-231 iPRAB cells, FIGS. 3-8
[2] = series 1 (no C3 substituent), HEK293T, FIG. 1

Structure (SMILES) | hPRB agonist/antagonist character (in words) [1] | hPRB agonist/antagonist character (in words) [2]
CC(=O)[C@H]1CC[C@H]2[C@@H]3CC=C4C[C@@H](F)CC[C@]4(C)[C@H]3CC[C@]12C [APR-16, 3β-Fluoropregn-5-en-20-one] | efficient hPRB antagonists; also recorded: agonist activity of this molecule is completely abolished | 
CC#C[C@]1(O)CCC2C3CC[C@H]4CCCC[C@]4(C)C3CC[C@@]21C (stereo partly drawn) [APR-42, 17α-(1-Propynyl)-5α-androstan-17β-ol] |  | full antagonists
C[C@]12CCC3C(CC=C4C[C@@H](F)CC[C@@H]43)C1CCC2=O (stereo partly drawn) [APR-47, 3β-Fluoro-19-nor-androst-5-en-17-one] | efficient hPRB antagonists | 
CC#C[C@]1(O)CCC2C3CC[C@H]4CCCC[C@@H]4C3CC[C@@]21C (stereo partly drawn) [APR-54, 17α-(1-Propynyl)-19-nor-5-androstan-17β-ol] |  | full antagonists
